# In ChEMBL document CHEMBL4138160, “Biphenylthiazole antibiotics with an oxadiazole linker: An approach to improve physicochemical properties and oral bioavailability” (Eur J Med Chem, 2018):
# Calls of active or inactive are those of the source. The rule behind the calls is not given here.
# Columns and labels:
# Staphylococcus aureus [1] = assay: Antibacterial activity against methicillin-resistant Staphylococcus aureus 2658 RCMB after 20 hrs by broth microdilution method; assay type: functional
# Staphylococcus aureus [2] = assay: Antibacterial activity against methicillin-resistant Staphylococcus aureus USA300 NRS384 at sub MIC after 4 passages by broth microdilution method
# Staphylococcus aureus [3] = assay: Antibacterial activity against methicillin-resistant Staphylococcus aureus USA300 NRS384 by broth microdilution method
# Enterobacter cloacae = assay: Antibacterial activity against Enterobacter cloacae BAA-1154 after 20 hrs by broth microdilution method; assay type: functional; details: BAA-1154, 20 h
# Staphylococcus aureus [4] = assay: Antibacterial activity against Staphylococcus aureus NRS119 clinical isolate after 18 to 20 hrs by broth microdilution method; assay type: functional
# Staphylococcus aureus [5] = assay: Antibacterial activity against Staphylococcus aureus NRS119 clinical isolate after 20 hrs by broth microdilution method; assay type: functional; details: NRS119, 20 h
# Acinetobacter baumannii = assay: Antibacterial activity against Acinetobacter baumannii ATCC 19606 after 20 hrs by broth microdilution method; assay type: functional; details: ATCC 19606 = CIP 70.34 = JCM 6841, 20 h
# Enterococcus faecium = assay: Antibacterial activity against vancomycin-resistant Enterococcus faecium ATCC 700221 after 20 hrs by broth microdilution method; assay type: functional; details: ATCC 700221, 20 h
# Pseudomonas aeruginosa = assay: Antibacterial activity against Pseudomonas aeruginosa ATCC 15442 after 20 hrs by broth microdilution method; assay type: functional; details: ATCC 15442, 20 h
# Klebsiella pneumoniae = assay: Antibacterial activity against Klebsiella pneumoniae BAA-1706 after 20 hrs by broth microdilution method; assay type: functional; details: BAA-1706, 20 h
# Staphylococcus aureus [6] = assay: Antibacterial activity against methicillin-resistant Staphylococcus aureus USA300 NRS384 at sub MIC after 14 passages over 2 weeks by broth microdilution method; assay type: functional, organism-based
# HRT-18 cell line [7] = assay: Cytotoxicity against human HRT18 cells assessed as decrease in cell viability up to 256 ug/ml after 2 hrs by MTS assay; assay type: cell-based; details: hrt-18, 2 h
# Staphylococcus aureus [8] = assay: Bactericidal activity against methicillin-resistant Staphylococcus aureus USA300 at 4 times MIC after 24 hrs by time kill assay; assay type: functional, organism-based
# Staphylococcus aureus [9] = assay: Potency index, ratio of vancomycin MIC to test compound MIC for Staphylococcus aureus VRS12 clinical isolate; assay type: functional
# Staphylococcus aureus [10] = assay: Bactericidal activity against methicillin-resistant Staphylococcus aureus USA300 at 4 times MIC after 12 hrs by time kill assay; assay type: functional
# Staphylococcus aureus [11] = assay: Potency index, ratio of vancomycin MIC to test compound MIC for Staphylococcus aureus VRS11a clinical isolate; assay type: functional
# Staphylococcus aureus [12] = assay: Antibacterial activity against Staphylococcus aureus RN4220 NRS107 clinical isolate after 20 hrs by broth microdilution method; assay type: functional; details: RN4220 NRS107, 20 h
# Staphylococcus aureus [13] = assay: Antibacterial activity against Staphylococcus aureus VRS12 clinical isolate after 20 hrs by broth microdilution method; assay type: functional; details: VRS12, 20 h
# Rattus norvegicus [14] = assay: Oral bioavailability in Sprague-Dawley rat at 25 mg/kg administered via gavage measured over 24 hrs by LC-MS/MS analysis; assay type: ADME, organism-based; details: in vivo
# [15] = Aqueous solubility in PBS after 2 hrs; assay type: physicochemical; details: buffer
# Staphylococcus aureus [16] = assay: Antibacterial activity against Staphylococcus aureus VRS10 clinical isolate after 20 hrs by broth microdilution method; assay type: functional; details: VRS10, 20 h
# Staphylococcus aureus [17] = assay: Antibacterial activity against Staphylococcus aureus VRS11a clinical isolate after 20 hrs by broth microdilution method; assay type: functional
# Rattus norvegicus [18] = assay: Cmax in Sprague-Dawley rat at 25 mg/kg administered via oral gavage measured over 24 hrs by LC-MS/MS analysis; assay type: ADME, organism-based; parameters: dose 25 mg/kg, route oral; details: in vivo
# [19] = AUClast in Sprague-Dawley rat at 25 mg/kg administered via oral gavage measured over 24 hrs by LC-MS/MS analysis; assay type: ADME, organism-based; parameters: dose 25 mg/kg, route oral, time 0 - last; details: in vivo
# [20] = Ratio of Cmax in Sprague-Dawley rat at 25 mg/kg administered via oral gavage to MIC for methicillin-resistant Staphylococcus aureus 2658 RCMB; assay type: ADME, organism-based; details: in vivo
# HRT-18 cell line [21] = assay: Cytotoxicity against human HRT18 cells assessed as decrease in cell viability at 512 ug/ml after 2 hrs by MTS assay; assay type: cell-based; details: hrt-18, 2 h
# [22] = Ratio of non cytotoxic concentration against human HRT18 cells to MIC for methicillin-resistant Staphylococcus aureus 2658 RCMB; assay type: toxicity, cell-based
# [23] = Half life in Sprague-Dawley rat at 25 mg/kg administered via oral gavage measured over 24 hrs by LC-MS/MS analysis; assay type: ADME, organism-based; details: in vivo
# Staphylococcus aureus [24] = assay: Antibacterial activity against Staphylococcus aureus USA400 NRS123 clinical isolate after 20 hrs by broth microdilution method; assay type: functional; details: USA400 NRS123, 20 h
# Enterococcus faecalis = assay: Antibacterial activity against vancomycin-resistant Enterococcus faecalis ATCC 51299 after 20 hrs by broth microdilution method; assay type: functional; details: ATCC 51299, 20 h
# BHK-21 [25] = assay: Cytotoxicity against BHK21 cells assessed as decrease in cell viability after 6 hrs by MTT assay; assay type: cell-based; details: Mesocricetus auratus, BHK-21, 6 h
# Rattus norvegicus [26] = assay: Tmax in Sprague-Dawley rat at 25 mg/kg administered via oral gavage measured over 24 hrs by LC-MS/MS analysis; assay type: ADME, organism-based; details: in vivo
# BHK-21 [27] = assay: Cytotoxicity against BHK21 cells assessed as decrease in cell viability after 24 hrs by MTT assay; assay type: cell-based; details: Mesocricetus auratus, BHK-21, 24 h
# Staphylococcus aureus [28] = assay: Antibacterial activity against Staphylococcus aureus RN4220 NRS107 clinical isolate after 18 to 20 hrs by broth microdilution method; assay type: functional
structure (smiles),measurement,setting,value
CCNc1nnc(-c2sc(-c3ccc(-c4ccccc4)cc3)nc2C)o1,MIC,Staphylococcus aureus [1],> 25 µg/mL
Cc1nc(-c2ccc(-c3ccccc3)cc2)sc1-c1nnc(NC(=N)N2CCCC2)o1,MIC,Staphylococcus aureus [1],12.5 µg/mL
CO[C@H]1/C=C/O[C@@]2(C)Oc3c(C)c(O)c4c(O)c(c(/C=N/N5CCN(C)CC5)c(O)c4c3C2=O)NC(=O)/C(C)=C\C=C\[C@H](C)[C@H](O)[C@@H](C)[C@@H](O)[C@@H](C)[C@H](OC(C)=O)[C@@H]1C [RIFAMPIN],MIC,Staphylococcus aureus [2],1.6 µg/mL
same,MIC,Staphylococcus aureus [3],0.006 µg/mL
CC(=O)NC[C@H]1CN(c2ccc(N3CCOCC3)c(F)c2)C(=O)O1 [LINEZOLID],MIC,Enterobacter cloacae,> 64 µg/mL
same,MIC,Staphylococcus aureus [4],> 128 µg/mL
same,MIC,Staphylococcus aureus [5],> 128 µg/mL
same,MIC,Acinetobacter baumannii,> 64 µg/mL
same,MIC,Enterococcus faecium,1 µg/mL
same,MIC,Pseudomonas aeruginosa,> 64 µg/mL
same,MIC,Klebsiella pneumoniae,> 64 µg/mL
Cc1nc(-c2ccc(-c3ccccc3)cc2)sc1-c1nnc(NC2CCCC2)o1,MIC,Staphylococcus aureus [1],> 25 µg/mL
Cc1nc(-c2ccc(-c3ccccc3)cc2)sc1-c1nnc(NC(=N)N2CCOCC2)o1,Activity,Staphylococcus aureus [6],Active
same,Activity,HRT-18 cell line [7],Non-Toxic
same,MIC,Staphylococcus aureus [1],1.56 µg/mL
Cc1nc(-c2ccc(-c3ccccc3)cc2)sc1-c1nnc(NC(=N)N2CCN(C)CC2)o1,Activity,Staphylococcus aureus [6],Active
same,MIC,Enterobacter cloacae,> 64 µg/mL
same,Activity,Staphylococcus aureus [8],Active
same,Ratio,Staphylococcus aureus [9],30
same,Activity,Staphylococcus aureus [10],3 deltalog10CFU/ml
same,Ratio,Staphylococcus aureus [11],30
same,MIC,Staphylococcus aureus [12],8 µg/mL
same,MIC,Staphylococcus aureus [13],16 µg/mL
same,F,Rattus norvegicus [14],42.5%
same,solubility,[15],104 µM
same,MIC,Staphylococcus aureus [16],16 µg/mL
same,MIC,Staphylococcus aureus [17],16 µg/mL
same,MIC,Acinetobacter baumannii,> 64 µg/mL
same,Cmax,Rattus norvegicus [18],6222.1 ng/mL
same,AUC(0-t) at 24 h,[19],83200 ng·h/mL
same,Ratio,[20],6
same,Activity,HRT-18 cell line [21],Non-Toxic
same,MIC,Enterococcus faecium,> 64 µg/mL
same,selectivity ratio,[22],> 400
same,half-life,[23],2.04 h
same,MIC,Staphylococcus aureus [24],16 µg/mL
same,MIC,Enterococcus faecalis,> 64 µg/mL
same,MIC,Pseudomonas aeruginosa,> 64 µg/mL
same,MIC,Klebsiella pneumoniae,> 64 µg/mL
same,MIC,Staphylococcus aureus [1],1.17 µg/mL
same,IC50,BHK-21 [25],398 µg/mL
same,Tmax,Rattus norvegicus [26],1.7 h
same,IC50,BHK-21 [27],45.7 µg/mL
Cc1nc(-c2ccc(-c3ccccc3)cc2)sc1-c1nnc(N2CCN(C)CC2)o1,solubility,[15],45 µM
same,MIC,Staphylococcus aureus [1],1.56 µg/mL
CCCCc1ccc(-c2nc(C)c(/C(C)=N/NC(=N)N)s2)cc1,F,Rattus norvegicus [14],0%
Cc1nc(-c2ccc(-c3ccccc3)cc2)sc1-c1nnc(NN)o1,solubility,[15],77 µM
same,MIC,Staphylococcus aureus [1],3.12 µg/mL
C/C(=N\NC(=N)N)c1sc(-c2ccc(-c3ccccc3)cc2)nc1C,solubility,[15],2.7 µM
same,MIC,Staphylococcus aureus [1],2.75 µg/mL
Cc1nc(-c2ccc(-c3ccccc3)cc2)sc1-c1nnc(NC(=N)N)o1,solubility,[15],128 µM
same,MIC,Staphylococcus aureus [1],1.56 µg/mL
same,IC50,BHK-21 [25],> 1000 µg/mL
same,IC50,BHK-21 [27],45 µg/mL
CCCNc1nnc(-c2sc(-c3ccc(-c4ccccc4)cc3)nc2C)o1,MIC,Staphylococcus aureus [1],> 25 µg/mL
Cc1nc(-c2ccc(-c3ccccc3)cc2)sc1-c1nnc(NC(=N)c2cccnc2)o1,MIC,Staphylococcus aureus [1],> 25 µg/mL
CCCCNc1nnc(-c2sc(-c3ccc(-c4ccccc4)cc3)nc2C)o1,MIC,Staphylococcus aureus [1],> 25 µg/mL
Cc1nc(-c2ccc(-c3ccccc3)cc2)sc1-c1nnc(NC(=N)c2ccncc2)o1,MIC,Staphylococcus aureus [1],> 25 µg/mL
CN[C@H](CC(C)C)C(=O)N[C@H]1C(=O)N[C@@H](CC(N)=O)C(=O)N[C@H]2C(=O)N[C@H]3C(=O)N[C@H](C(=O)N[C@H](C(=O)O)c4cc(O)cc(O)c4-c4cc3ccc4O)[C@H](O)c3ccc(c(Cl)c3)Oc3cc2cc(c3O[C@@H]2O[C@H](CO)[C@@H](O)[C@H](O)[C@H]2O[C@H]2C[C@](C)(N)[C@H](O)[C@H](C)O2)Oc2ccc(cc2Cl)[C@H]1O [VANCOMYCIN],MIC,Staphylococcus aureus [13],> 512 µg/mL
same,MIC,Staphylococcus aureus [17],> 512 µg/mL
same,MIC,Enterococcus faecium,> 64 µg/mL
same,MIC,Staphylococcus aureus [1],1.56 µg/mL
Cc1nc(-c2ccc(-c3ccccc3)cc2)sc1-c1nnc(NC2CCCCC2)o1,MIC,Staphylococcus aureus [1],> 25 µg/mL
Cc1nc(-c2ccc(-c3ccccc3)cc2)sc1-c1ccnc(NC(=N)N)n1,solubility,[15],2.2 µM
CCN(CC)c1nnc(-c2sc(-c3ccc(-c4ccccc4)cc3)nc2C)o1,MIC,Staphylococcus aureus [1],> 25 µg/mL
Cc1nc(-c2ccc(-c3ccccc3)cc2)sc1-c1nnc(NC(=N)c2ccccn2)o1,MIC,Staphylococcus aureus [1],> 25 µg/mL
Cc1nc(-c2ccc(-c3ccccc3)cc2)sc1-c1nnc(N2CC(O)C2)o1,solubility,[15],150 µM
same,MIC,Staphylococcus aureus [1],3.12 µg/mL
Cc1nc(-c2ccc(-c3ccccc3)cc2)sc1-c1nnc(N2CCC2)o1,MIC,Staphylococcus aureus [1],> 25 µg/mL
C/C(=C\C(=O)OCCCCCCCCC(=O)O)C[C@@H]1OC[C@H](C[C@@H]2O[C@H]2[C@@H](C)[C@H](C)O)[C@@H](O)[C@H]1O [MUPIROCIN],MIC,Staphylococcus aureus [28],1020 µg/mL
CNC(=N)Nc1nnc(-c2sc(-c3ccc(-c4ccccc4)cc3)nc2C)o1,solubility,[15],89 µM
same,MIC,Staphylococcus aureus [1],1.56 µg/mL
Cc1nc(-c2ccc(-c3ccccc3)cc2)sc1-c1nnc(NC(=N)N2CCCCC2)o1,MIC,Staphylococcus aureus [1],> 25 µg/mL
Cc1nc(-c2ccc(-c3ccccc3)cc2)sc1-c1nnc(N2CCCC2)o1,MIC,Staphylococcus aureus [1],> 25 µg/mL
CNc1nnc(-c2sc(-c3ccc(-c4ccccc4)cc3)nc2C)o1,MIC,Staphylococcus aureus [1],12.5 µg/mL
Cc1nc(-c2ccc(-c3ccccc3)cc2)sc1-c1nnc(NC(C)C)o1,MIC,Staphylococcus aureus [1],> 25 µg/mL
Cc1nc(-c2ccc(-c3ccccc3)cc2)sc1-c1nnc(N2CCOCC2)o1,MIC,Staphylococcus aureus [1],12.5 µg/mL
Cc1nc(-c2ccc(-c3ccccc3)cc2)sc1-c1nnc(N(C)C)o1,MIC,Staphylococcus aureus [1],> 25 µg/mL
